This note sets out measurements from US20240024488A1, “COMPOUNDS AND USES THEREOF” (Foghorn Therapeutics Inc., priority 2020, published 2024).

Assay [1] addresses T1, HiBit-BRM fusion protein (Homo sapiens, UniProt P51531).
T1 construct: expressed in transfected cells
Briefly: HiBiT-BRM cell-based degradation assay (Nano-Glo HiBiT Lytic Detection, 24 h). The note with it: HeLa cell line expressing HiBiT-BRM; for DC50: read-out: BRM HiBit Degradation IC50. The gist of the method: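 Luminescence from reconstituted NanoBiT luciferase in lysed HeLa HiBiT-BRM cells served as the measure of remaining BRM after 24 h treatment. Compounds were tested from 30 μM final downward in 3-fold steps. DMSO and 2 μM of a standard BRM/BRG1 degrader defined the scale limits.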
(In general: With HiBiT, luminescence reflects the tagged protein that the partner subunit can reach.)

In assay [2] the target is T2, HiBit-BRG1 fusion protein (Homo sapiens, UniProt P51532).
T2 construct: expressed in transfected cells
Briefly: HiBiT-BRG1 cell-based degradation assay (Nano-Glo HiBiT Lytic Detection, 24 h). The note with it: HeLa cell line expressing HiBit-BRG1 and LgBit; for Dmax: read-out: BRG1 HiBit Degradation Maximum (%). The gist of the method: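 Luminescence from reconstituted NanoBiT luciferase after lytic detection served as read-out of remaining HiBit-BRG1 in stable HeLa cells, which also express LgBit. Cells were seeded at 5000 per well and incubated with compound for 24 h. DMSO and a 2 μM known degrader defined the control range.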

T1 sequence (P51531 whole entry, the tested form may be a part): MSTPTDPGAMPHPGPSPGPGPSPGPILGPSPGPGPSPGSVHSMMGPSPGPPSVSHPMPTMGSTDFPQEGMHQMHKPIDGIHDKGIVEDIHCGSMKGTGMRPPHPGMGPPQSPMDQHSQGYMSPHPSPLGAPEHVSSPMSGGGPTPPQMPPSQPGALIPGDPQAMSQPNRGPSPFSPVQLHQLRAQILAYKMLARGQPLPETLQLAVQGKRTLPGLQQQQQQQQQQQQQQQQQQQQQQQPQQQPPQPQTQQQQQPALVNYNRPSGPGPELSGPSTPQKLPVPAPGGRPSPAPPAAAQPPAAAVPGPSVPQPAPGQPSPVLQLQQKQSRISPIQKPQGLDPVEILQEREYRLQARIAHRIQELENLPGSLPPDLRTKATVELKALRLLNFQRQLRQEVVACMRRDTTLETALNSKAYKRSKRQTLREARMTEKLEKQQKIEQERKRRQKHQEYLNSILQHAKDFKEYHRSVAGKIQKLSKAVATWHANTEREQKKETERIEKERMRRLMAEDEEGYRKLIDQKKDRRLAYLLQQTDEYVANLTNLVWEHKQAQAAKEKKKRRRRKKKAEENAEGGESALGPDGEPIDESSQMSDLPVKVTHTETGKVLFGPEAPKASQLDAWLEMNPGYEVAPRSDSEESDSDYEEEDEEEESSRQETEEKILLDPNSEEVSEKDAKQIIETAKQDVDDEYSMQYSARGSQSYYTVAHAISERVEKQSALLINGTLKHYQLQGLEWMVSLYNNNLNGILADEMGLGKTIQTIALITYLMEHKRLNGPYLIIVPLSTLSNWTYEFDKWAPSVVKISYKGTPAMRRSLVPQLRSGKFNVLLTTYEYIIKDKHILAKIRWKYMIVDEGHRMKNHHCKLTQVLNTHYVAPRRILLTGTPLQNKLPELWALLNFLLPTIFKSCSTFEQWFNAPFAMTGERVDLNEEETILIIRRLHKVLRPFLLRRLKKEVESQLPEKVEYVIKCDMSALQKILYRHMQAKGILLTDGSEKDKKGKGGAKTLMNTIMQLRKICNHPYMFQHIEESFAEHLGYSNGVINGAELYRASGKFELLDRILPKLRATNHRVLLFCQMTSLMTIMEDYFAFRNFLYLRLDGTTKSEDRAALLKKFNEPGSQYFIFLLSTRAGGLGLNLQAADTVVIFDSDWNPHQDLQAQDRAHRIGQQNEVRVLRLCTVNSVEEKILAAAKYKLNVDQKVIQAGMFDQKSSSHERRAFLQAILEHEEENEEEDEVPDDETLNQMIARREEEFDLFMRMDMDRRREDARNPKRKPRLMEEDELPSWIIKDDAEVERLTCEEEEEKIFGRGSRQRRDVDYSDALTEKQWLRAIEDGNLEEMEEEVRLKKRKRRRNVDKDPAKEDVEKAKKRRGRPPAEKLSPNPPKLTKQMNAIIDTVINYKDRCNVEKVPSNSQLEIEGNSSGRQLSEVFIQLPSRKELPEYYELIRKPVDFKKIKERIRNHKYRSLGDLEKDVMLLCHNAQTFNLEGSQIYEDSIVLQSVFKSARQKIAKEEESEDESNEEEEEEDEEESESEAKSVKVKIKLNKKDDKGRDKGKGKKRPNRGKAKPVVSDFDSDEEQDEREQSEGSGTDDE
T2 sequence (P51532 whole entry, the tested form may be a part): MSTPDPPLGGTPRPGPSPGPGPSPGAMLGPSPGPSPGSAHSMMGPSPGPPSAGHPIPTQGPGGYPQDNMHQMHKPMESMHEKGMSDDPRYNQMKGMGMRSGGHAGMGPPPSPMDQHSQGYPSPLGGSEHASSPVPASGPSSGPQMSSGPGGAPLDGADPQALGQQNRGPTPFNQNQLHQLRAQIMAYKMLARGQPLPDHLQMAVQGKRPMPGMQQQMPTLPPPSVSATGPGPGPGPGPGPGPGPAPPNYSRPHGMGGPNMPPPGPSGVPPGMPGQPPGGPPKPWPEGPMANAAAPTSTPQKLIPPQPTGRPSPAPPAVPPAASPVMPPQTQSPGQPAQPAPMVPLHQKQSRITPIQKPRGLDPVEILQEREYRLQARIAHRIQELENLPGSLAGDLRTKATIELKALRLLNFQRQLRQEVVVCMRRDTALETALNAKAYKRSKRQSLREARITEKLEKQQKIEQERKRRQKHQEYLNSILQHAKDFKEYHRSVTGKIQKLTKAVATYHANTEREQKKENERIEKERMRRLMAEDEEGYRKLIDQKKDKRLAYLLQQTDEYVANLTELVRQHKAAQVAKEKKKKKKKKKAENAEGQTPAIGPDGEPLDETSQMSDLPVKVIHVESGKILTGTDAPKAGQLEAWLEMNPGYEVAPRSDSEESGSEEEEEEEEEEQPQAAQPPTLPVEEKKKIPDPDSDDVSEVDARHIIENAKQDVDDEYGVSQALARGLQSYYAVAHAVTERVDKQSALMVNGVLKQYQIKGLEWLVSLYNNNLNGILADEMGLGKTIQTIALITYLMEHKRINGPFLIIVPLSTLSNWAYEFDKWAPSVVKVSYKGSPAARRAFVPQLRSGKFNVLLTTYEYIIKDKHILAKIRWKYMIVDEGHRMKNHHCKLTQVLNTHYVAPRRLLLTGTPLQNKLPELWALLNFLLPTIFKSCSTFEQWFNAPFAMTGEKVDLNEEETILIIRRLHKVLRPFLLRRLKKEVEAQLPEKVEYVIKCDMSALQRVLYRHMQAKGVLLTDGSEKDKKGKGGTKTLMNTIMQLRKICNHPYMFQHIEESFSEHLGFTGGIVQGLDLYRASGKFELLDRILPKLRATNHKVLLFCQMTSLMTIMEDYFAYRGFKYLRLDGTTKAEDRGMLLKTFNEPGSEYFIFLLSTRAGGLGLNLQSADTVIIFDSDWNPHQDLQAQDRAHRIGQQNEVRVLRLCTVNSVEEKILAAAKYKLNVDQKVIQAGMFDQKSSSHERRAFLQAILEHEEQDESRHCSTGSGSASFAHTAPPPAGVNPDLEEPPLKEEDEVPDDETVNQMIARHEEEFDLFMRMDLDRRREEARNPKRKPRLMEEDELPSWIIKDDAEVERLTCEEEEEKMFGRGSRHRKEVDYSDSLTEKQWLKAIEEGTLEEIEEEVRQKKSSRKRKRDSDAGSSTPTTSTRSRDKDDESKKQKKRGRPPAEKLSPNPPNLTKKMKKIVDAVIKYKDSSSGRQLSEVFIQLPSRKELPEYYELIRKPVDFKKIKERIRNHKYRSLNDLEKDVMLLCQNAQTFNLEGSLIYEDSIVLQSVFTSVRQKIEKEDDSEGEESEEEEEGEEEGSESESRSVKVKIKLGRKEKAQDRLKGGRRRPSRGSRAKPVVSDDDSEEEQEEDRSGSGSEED

As to `Cc1ncsc1-c1ccc([C@H](C)NC(=O)[C@@H]2C[C@@H](O)CN2C(=O)[C@H](c2cc(N(C)CCN3CC(c4cc5cc(-c6ccccc6O)nnc5[nH]4)C3)no2)C(C)C)cc1` (racemic) [Compound 257, (2S,4R)-4-hydroxy-1-((S)-2-(3-((2-(3-(3-(2-hydroxyphenyl)-7H-pyrrolo[2,3-c]pyridazin-6-yl)azetidin-1-yl)ethyl)(methyl)amino)isoxazol-5-yl)-3-methylbutanoyl)-N-((S)-1-(4-(4-methylthiazol-5-yl)phenyl)ethyl)pyrrolidine-2-carboxamide], the “BRM HiBit Degradation Maximum (%)” value in assay [1] is “C (“C” indicates maximum degradation < 50%)”. For the same compound, in assay [2], the Dmax was < 50%.

Regarding `Cc1ncsc1-c1ccc([C@H](C)NC(=O)[C@@H]2C[C@@H](O)CN2C(=O)[C@@H](c2cc(OCCN(C)CCC(=O)N3CC(c4c[nH]c5nnc(-c6ccccc6O)cc45)C3)no2)C(C)C)cc1` (racemic) [Compound 221, (2S,4R)-4-hydroxy-1-((R)-2-(3-(2-((3-(3-(3-(2-hydroxyphenyl)-7H-pyrrolo[2,3-c]pyridazin-5-yl)azetidin-1-yl)-3-oxopropyl)(methyl)amino)ethoxy)isoxazol-5-yl)-3-methylbutanoyl)-N-((S)-1-(4-(4-methylthiazol-5-yl)phenyl)ethyl)pyrrolidine-2-carboxamide], in assay [1], the “BRM HiBit Degradation Maximum (%)” value is on record as “B (“B” indicates maximum degradation ≥ 50%)” and the DC50 was > 100 nM. In addition, the Dmax in assay [2] is < 50%.

Take `Cc1ncsc1-c1ccc(CNC(=O)[C@@H]2C[C@@H](O)CN2C(=O)[C@@H](NC(=O)CCCCCCC(=O)N2CC(c3cc4cc(-c5ccccc5O)nnc4[nH]3)C2)C(C)(C)C)cc1` [Compound 3, (2S,4R)-4-hydroxy-1-((S)-2-(8-(3-(3-(2-hydroxyphenyl)-7H-pyrrolo[2,3-c]pyridazin-6-yl)azetidin-1-yl)-8-oxooctanamido)-3,3-dimethylbutanoyl)-N-(4-(4-methylthiazol-5-yl)benzyl)pyrrolidine-2-carboxamide]: in assay [1], the “BRM HiBit Degradation Maximum (%)” value was “B (“B” indicates maximum degradation ≥ 50%)” and the DC50 is > 1000 nM. In addition, the Dmax in assay [2] is < 50%.

For `Cc1ncsc1-c1ccc([C@H](C)NC(=O)[C@@H]2C[C@@H](O)CN2C(=O)[C@@H](c2cc(OCCN3CCC(N4CC(c5[nH]c6nnc(-c7ccccc7O)cc6c5C)C4)CC3)no2)C(C)C)cc1` (racemic) [Compound 271, (2S,4R)-4-hydroxy-1-((R)-2-(3-(2-(4-(3-(3-(2-hydroxyphenyl)-5-methyl-7H-pyrrolo[2,3-c]pyridazin-6-yl)azetidin-1-yl)piperidin-1-yl)ethoxy)isoxazol-5-yl)-3-methylbutanoyl)-N-((S)-1-(4-(4-methylthiazol-5-yl)phenyl)ethyl)pyrrolidine-2-carboxamide], in assay [1], the “BRM HiBit Degradation Maximum (%)” value is listed as “A (“A” indicates maximum degradation ≥ 75%)” and the DC50 is < 10 nM. In assay [2], the Dmax was > 75%. Also, in assay [2] (read-out: BRMG1 HiBit Degradation IC50), the DC50 was > 10 nM.

Turning to `Cc1ncsc1-c1ccc(CNC(=O)[C@@H]2C[C@@H](O)CN2C(=O)[C@@H](NC(=O)CCCNC(=O)[C@H]2CCc3[nH]c4nnc(-c5ccccc5O)cc4c3C2)C(C)(C)C)cc1` (single isomer, unassigned) [Compound 190], the “BRM HiBit Degradation Maximum (%)” value in assay [1] is listed as “C (“C” indicates maximum degradation < 50%)”. The Dmax in assay [2] was < 50%.

For `Cc1ncsc1-c1ccc(CNC(=O)[C@@H]2C[C@@H](O)CN2C(=O)[C@@H](NC(=O)CCCCCCCCC(=O)N2CC(c3c[nH]c4nnc(-c5ccccc5O)cc34)C2)C(C)(C)C)cc1` [Compound 43, (2S,4R)-4-hydroxy-1-((S)-2-(10-(3-(3-(2-hydroxyphenyl)-7H-pyrrolo[2,3-c]pyridazin-5-yl)azetidin-1-yl)-10-oxodecanamido)-3,3-dimethylbutanoyl)-N-(4-(4-methylthiazol-5-yl)benzyl)pyrrolidine-2-carboxamide], the “BRM HiBit Degradation Maximum (%)” value in assay [1] is given as “C (“C” indicates maximum degradation < 50%)”. Also, the Dmax in assay [2] is < 50%.
